Legend:
[1] = system: plasma levels of triglycerides; assay: Effect of oral administration on plasma levels of triglycerides in the empty rat; assay type: in vivo, rat (COBS CD (SD) BR male); conditions: for Percent variations of plasma triglycerides with respect to the controls: empty rat; for Time within which the effect on triglycerides disappears: rat
[2] = system: plasma levels of free glycerol; assay: Effect of oral administration on plasma levels of free glycerol in the empty rat; assay type: in vivo, rat (COBS CD (SD) BR male); conditions: for Percent variations of plasma free glycerol with respect to the controls: empty rat
[3] = system: plasma levels of cholesterol; assay: Effect of oral administration on plasma levels of cholesterol in the empty rat; assay type: in vivo, rat (COBS CD (SD) BR male); conditions: for Percent variations of plasma cholesterol with respect to the controls: 100 mg/kg oral referred to nicotinic acid, empty rat
[4] = system: plasma levels of FFA; assay: Effect of oral administration on plasma levels of FFA in the empty rat; conditions: for Percent variations of plasma FFA with respect to the controls: empty rat
[5] = 30 mg/kg oral referred to nicotinic acid, 1 h
[6] = 30 mg/kg oral referred to nicotinic acid, 2 h
[7] = 30 mg/kg oral referred to nicotinic acid, 4 h
[8] = 30 mg/kg oral referred to nicotinic acid, 6 h
[9] = 100 mg/kg oral referred to nicotinic acid, 2 h
[10] = 100 mg/kg oral referred to nicotinic acid, 4 h
[11] = 100 mg/kg oral referred to nicotinic acid, 6 h
[12] = 100 mg/kg oral referred to nicotinic acid, 8 h
[13] = 100 mg/kg oral referred to nicotinic acid, 10 h
[14] = 100 mg/kg oral referred to nicotinic acid, 16 h
[15] = 100 mg/kg oral referred to nicotinic acid, 24 h

O=C(OCC(COC(=O)c1cccnc1)(COC(=O)c1cccnc1)COC(=O)c1cccnc1)c1cccnc1 [NICERITROLE, pentaerithritol-tetranicotinate]
Percent variations of plasma triglycerides with respect to the controls [1, 5]: -45% | Percent variations of plasma triglycerides with respect to the controls [1, 6]: -27% | Percent variations of plasma triglycerides with respect to the controls [1, 7]: +13% | Percent variations of plasma triglycerides with respect to the controls [1, 8]: -6% | Time within which the effect on triglycerides disappears ([1]; 30 mg/kg oral): ≤ 2 h | Percent variations of plasma triglycerides with respect to the controls [1, 9]: -41% | Percent variations of plasma triglycerides with respect to the controls [1, 10]: -56% | Percent variations of plasma triglycerides with respect to the controls [1, 11]: -63% | Percent variations of plasma triglycerides with respect to the controls [1, 12]: -30% | Percent variations of plasma triglycerides with respect to the controls [1, 13]: +9% | Percent variations of plasma triglycerides with respect to the controls [1, 14]: -3% | Percent variations of plasma triglycerides with respect to the controls [1, 15]: +5% | Time within which the effect on triglycerides disappears ([1]; 100 mg/kg oral): within the eighth hour | Percent variations of plasma free glycerol with respect to the controls [2, 5]: -77% | Percent variations of plasma free glycerol with respect to the controls [2, 6]: -9% | Percent variations of plasma free glycerol with respect to the controls [2, 7]: -4% | Percent variations of plasma free glycerol with respect to the controls [2, 8]: +11% | Activity on free glycerol ([2]; 30 mg/kg oral, rat): active only after 1 hour | Percent variations of plasma free glycerol with respect to the controls [2, 9]: -61% | Percent variations of plasma free glycerol with respect to the controls [2, 10]: -34% | Percent variations of plasma free glycerol with respect to the controls [2, 11]: +17% | Percent variations of plasma free glycerol with respect to the controls [2, 12]: +11% | Percent variations of plasma free glycerol with respect to the controls [2, 13]: +4% | Percent variations of plasma free glycerol with respect to the controls [2, 14]: +13% | Percent variations of plasma free glycerol with respect to the controls [2, 15]: +3% | Time within which the effect on free glycerol disappears ([2]; 100 mg/kg oral, rat): within the fourth hour | Percent variations of plasma cholesterol with respect to the controls ([3]; 4 h): -2% | Percent variations of plasma cholesterol with respect to the controls ([3]; 6 h): -7% | Percent variations of plasma cholesterol with respect to the controls ([3]; 8 h): 0% | Percent variations of plasma cholesterol with respect to the controls ([3]; 10 h): -10% | Percent variations of plasma cholesterol with respect to the controls ([3]; 16 h): -17% | Percent variations of plasma cholesterol with respect to the controls ([3]; 24 h): -14% | Lowering of cholesterolemy ([3]; 100 mg/kg oral, rat): never significant | Percent variations of plasma FFA with respect to the controls [4, 5]: -87% | Percent variations of plasma FFA with respect to the controls [4, 6]: -18% | Percent variations of plasma FFA with respect to the controls [4, 7]: +9% | Percent variations of plasma FFA with respect to the controls [4, 8]: +8% | Percent variations of plasma FFA with respect to the controls [4, 9]: -70% | Percent variations of plasma FFA with respect to the controls [4, 10]: -43% | Percent variations of plasma FFA with respect to the controls [4, 11]: +27% | Percent variations of plasma FFA with respect to the controls [4, 12]: +10% | Percent variations of plasma FFA with respect to the controls [4, 13]: -2% | Percent variations of plasma FFA with respect to the controls [4, 14]: +6% | Percent variations of plasma FFA with respect to the controls [4, 15]: -8% | Time within which the effect on FFA disappears ([4]; 100 mg/kg oral, rat): ≤ 6 h

Reference: patent publication US4358441A, “Nicotinic derivatives of glucosamine and related pharmaceutical compositions” (Laboratorio Guidotti & C. S.p.A., priority 1980, dated 1982)
